Laboratory results reported in PMC13095408, “DBeQ derivative targets vacuolar protein sorting 4 functions in cancer cells and suppresses tumor growth in mice” (The Journal of Pharmacology and Experimental Therapeutics, 2025).

Legend:
[1] = molecular target: T1, VPS4B (Homo sapiens, UniProt O75351); assay: VPS4B ATPase activity, EnzChek Phosphate assay; type: biochemical; design: His tag (pET28a vector-encoded) (N); made in house; host or cells: Escherichia coli BL21(DE3)
T1 sequence (O75351 1-444): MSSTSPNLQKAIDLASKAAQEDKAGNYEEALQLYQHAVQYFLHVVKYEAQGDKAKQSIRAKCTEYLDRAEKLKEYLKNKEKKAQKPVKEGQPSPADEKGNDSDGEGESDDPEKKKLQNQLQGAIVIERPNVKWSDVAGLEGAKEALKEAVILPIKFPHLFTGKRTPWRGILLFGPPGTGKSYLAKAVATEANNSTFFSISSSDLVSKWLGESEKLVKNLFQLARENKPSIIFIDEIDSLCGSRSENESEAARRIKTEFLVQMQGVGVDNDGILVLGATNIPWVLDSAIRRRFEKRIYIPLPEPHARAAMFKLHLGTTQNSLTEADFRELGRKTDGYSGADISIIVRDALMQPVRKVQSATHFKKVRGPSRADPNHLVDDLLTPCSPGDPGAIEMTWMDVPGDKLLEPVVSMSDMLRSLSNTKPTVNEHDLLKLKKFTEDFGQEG
Method: VPS4B and VCP ATPase activities were measured using the EnzChek Phosphate assay for the quantification of released phosphate. Assay buffers were based on literature precedents ([Cupido et al, 2019], [2021]) as follows: VPS4B buffer (20 mM HEPES-KOH, pH 7.4, 25 mM KOAc, 2 mM MgCl2, 5 mM (NH4)2SO4, 0.5 mM CaCl2, 2.5 mM DTT, 0.1 mg/mL BSA, 0.005% v/v Triton X-100), VCP buffer (20 mM HEPES-NaOH, pH 7.4, 20 mM NaCl, 10 mM MgCl2, 5 mM (NH4)2SO4, 0.5 mM CaCl2, 2.5 mM DTT, 0.1 mg/mL BSA, 0.005% v/v Triton X-100). In black clear-bottom 384-well plates, 22.5 μL of 5% DMSO or 40× test compounds diluted in the respective assay buffer was added to each well. ATPases were diluted to 1 μM in the respective buffers containing 2× EnzChek Phosphate assay coupling reagents of 400 μM MESG and 2 U of PNP, then 25 μL was added to each well. Plates were mixed at 1000 rpm for 30 minutes at RT while being protected from light. The reaction was initiated by adding 2.5 μL of 20 mM MgATP or water followed by mixing at 1200 rpm for 30 seconds at RT. Plates were measured at 360 nm using a CLARIOstar plate reader (BMG LABTECH) for 20 minutes at 37 °C. ATPase activity was calculated as the amount of phosphate released over a 5-minute interval under linear initial velocity conditions. The remaining ATPase activity was calculated by normalizing compound-treated activity values to the DMSO control. IC50 was calculated by fitting normalized values to a sigmoidal dose-response curve with Hill slope = −1 using Graph Pad Prism 10.0.
To identify VPS4i, we developed enzyme- and cell-based VPS4 functional assays to serve as VPS4i-screening platforms. For the enzyme-based assay, we used the colorimetric EnzChek Phosphate assay that detects free phosphate with the advantage of continuous measurement of ATP hydrolysis over time. […] Due to the high sequence and structural similarity of AAA-ATPases, we also established a VCP ATPase assay to evaluate hit selectivity. […] For the cell-based assay, our approach was based on how VPS4 inhibition causes the accumulation of ESCRT-III ([Babst et al, 1998]; [Katoh et al, 2003]). We used an N-terminal GFP-tagged CHMP4B reporter system because it is the most abundant ESCRT-III subunit ([Katoh et al, 2004]; [Teis et al, 2008]). Our aim was to test compounds under short-term serum and amino acid starvation to stimulate ESCRT activity for easier detection of inhibitors ([Takahashi et al, 2018], [2019]). […] Overall, we established 2 systems for VPS4i screening, a VPS4B ATPase activity assay and a GFP-CHMP4B accumulation cell-based assay.

[2] = tested on: GFP-CHMP4B-expressing U2OS cells; assay: GFP-CHMP4B accumulation cell-based assay (high-content microscopy)
Method: Plates were then scanned using the 20× objective for 1 hour with ≥100 cells/well across 6 fields/well. […] For all other assays, the cells were cultured overnight in black glass-bottom 96-well plates (Cellvis; P96-1.5H-N) then stained, rinsed, and treated with SM containing the indicated compounds (0.1% DMSO or 0.1% DMSO/0.1% ethanol [vehicle] final). Plates were scanned using the 20× NA .70 objective at the indicated intervals with ≥ 300 cells/well across 3 fields/well. […]

[3] = screened at 5 µM, mean ± S.D., Supplemental Table 2
[4] = screened at 1 µM, mean ± S.D., Supplemental Table 2
[5] = remaining ATPase activity, screened at 5 μM, mean ± SD, Table 1
[6] = screened at 1 μM, starvation media, 1 hour, foci intensity per cell normalized to 4-107, mean ± SD, Table 1

Row | Structure (SMILES) | VPS4B ATPase (% DMSO) [1, 3] [% DMSO] | GFP-CHMP4B (% 4-107) [2, 4] [% 4-107] | VPS4B ATPase (% DMSO) [1, 5] [% DMSO] | GFP-CHMP4B (% 4-107) [2, 6] [% 4-107] | VPS4B ATPase (% DMSO) ([1]; screened at 5 µM, mean ± S.D., Supplemental Table 2, listed as 7-07) | GFP-CHMP4B (% 4-107) ([2]; screened at 1 µM, mean ± S.D., Supplemental Table 2, listed as 7-07)
1 | COc1cccc2c(NCc3ccccc3)nc(NC(c3ccccc3)c3ccccc3)nc12 [Compound 7-23] | 37.77 ± 2.37 | 23.20 ± 6.42 |  |  |  | 
2 | COc1cccc2c(NCc3ccccc3)nc(Nc3ccc4ncsc4c3)nc12 [Compound 5-69] | 51.27 ± 1.54 | 2.10 ± 1.22 |  |  |  | 
3 | COc1cccc2c(NCCc3cccnc3)nc(-n3ccc4cncnc43)nc12 [Compound 5-63] | 90.35 ± 0.07 | 5.28 ± 0.27 |  |  |  | 
4 | COc1cccc2c(NCCc3ccccc3)nc(N[C@@H](C)c3ccccc3)nc12 [Compound 5-83] | 42.92 ± 3.93 | 1.83 ± 1.02 |  |  |  | 
5 | COc1ccc2cccc(Nc3nc(NCc4ccccc4)c4cccc(OC)c4n3)c2c1 [Compound 5-119] | 53.27 ± 1.65 | 2.49 ± 0.70 |  |  |  | 
6 | NCc1ccccc1 [Compound 2] | 55.31 ± 5.04 | 6.69 ± 3.07 | 55.31 ± 5.04 | 6.69 ± 3.07 |  | 
7 | COc1cccc2c(NCc3ccccc3)nc(N[C@@H](C)c3ccc4ccccc4c3)nc12 [Compound 5-93] | 58.00 ± 2.01 | 5.34 ± 4.29 |  |  |  | 
8 | COC(=O)c1ccc2ccn(-c3nc(NCc4ccccc4)c4cccc(OC)c4n3)c2c1 [Compound 8] | 82.10 ± 2.19 | 1.38 ± 0.73 | 82.10 ± 2.19 | 1.38 ± 0.73 |  | 
9 | COc1cccc2c(NCCc3ccc(S(N)(=O)=O)cc3)nc(-n3ccc4ccc(C(=O)O)cc43)nc12 [Compound 5-43-iv] | 99.19 ± 4.43 | 1.27 ± 0.69 |  |  |  | 
10 | COc1cccc2c(NCCc3ccccc3)nc(NCc3nc4ccccc4s3)nc12 [Compound 5-107] | 75.99 ± 2.63 | 0.24 ± 0.08 |  |  |  | 
11 | COc1cccc2c(NCc3ccccc3)nc(N[C@@H](C)c3ccccc3)nc12 [Compound 5-81] | 43.91 ± 0.05 | 7.65 ± 7.10 |  |  |  | 
12 | COc1cccc2c(NCc3ccccc3)nc(Nc3cccc4cc5ccccc5cc34)nc12 [Compound 5-129] | 63.24 ± 0.19 | 1.25 ± 0.86 |  |  |  | 
13 | COc1cccc2c(NCCc3ccccc3)nc(NCCc3ccccc3)nc12 [Compound 5-03] | 30.96 ± 1.37 | 2.31 ± 1.75 |  |  |  | 
14 | COc1ncnc2c1ccn2-c1nc(NCc2ccccc2)c2cccc(OC)c2n1 [Compound 5-51] | 91.51 ± 3.26 | 2.51 ± 1.24 |  |  |  | 
15 | COc1cccc2c(NCCc3ccccc3)nc(N[C@@H](C)c3ccc4ccccc4c3)nc12 [Compound 5-97] | 49.73 ± 0.04 | 1.82 ± 0.02 |  |  |  | 
16 | COc1cccc2c(NCCc3cccc(S(N)(=O)=O)c3)nc(NCCc3ccc(S(N)(=O)=O)cc3)nc12 [Compound 5-15-iv] | 77.37 ± 4.37 | 3.22 ± 0.67 |  |  |  | 

Row | Structure (SMILES) | VPS4B ATPase (% DMSO) [1, 3] [% DMSO] | GFP-CHMP4B (% 4-107) [2, 4] [% 4-107] | VPS4B ATPase (% DMSO) [1, 5] [% DMSO] | GFP-CHMP4B (% 4-107) [2, 6] [% 4-107] | VPS4B ATPase (% DMSO) ([1]; screened at 5 µM, mean ± S.D., Supplemental Table 2, listed as 7-07) | GFP-CHMP4B (% 4-107) ([2]; screened at 1 µM, mean ± S.D., Supplemental Table 2, listed as 7-07)
17 | COc1cccc2c(NCc3ccccc3)nc(-n3ccc4c(C(=O)O)cccc43)nc12 [Compound 5-137] | 96.09 ± 2.11 | 2.21 ± 0.41 |  |  |  | 
18 | COc1cccc2c(NCc3ccc(Cl)cc3)nc(NCc3ccc(Cl)cc3)nc12 [Compound 5-07] | 28.5 ± 0.04 | 14.56 ± 10.71 |  |  |  | 
19 | COc1cccc2c(NCc3ccccc3)nc(-c3cccc4ccccc34)nc12 [Compound 10] | 49.12 ± 2.89 | 3.97 ± 0.16 | 49.12 ± 2.89 | 3.97 ± 0.16 |  | 
20 | COc1cccc2c(NCCc3ccccc3)nc(N[C@H](C)c3ccccc3)nc12 [Compound 5-91] | 40.44 ± 0.01 | 1.69 ± 0.12 |  |  |  | 
21 | COc1cccc2c(NCc3ccccc3)nc(N[C@@H](C)c3cccc4ccccc34)nc12 [Compound 5-101] | 49.27 ± 0.19 | 2.43 ± 1.02 |  |  |  | 
22 | COc1cccc2c(NCc3ccncc3)nc(NCc3ccncc3)nc12 [Compound 5-11] | 82.46 ± 1.64 | 1.10 ± 0.76 |  |  |  | 
23 | COc1cccc2c(NCc3ccc(S(N)(=O)=O)cc3)nc(Cl)nc12 [Compound 5-17] | 86.08 ± 7.25 | 2.87 ± 0.27 |  |  |  | 
24 | COc1cccc2c(NCc3ccccc3)nc(NC(c3ccc(F)cc3)c3ccc(F)cc3)nc12 [Compound 7-13] | 39.86 ± 1.36 | 12.60 ± 1.04 |  |  |  | 
25 | COc1cccc2c(NCc3ccccc3)nc(NCc3cccc(C(=O)O)c3)nc12 [Compound 5-35-iv] | 88.20 ± 5.24 | 10.92 ± 9.21 |  |  |  | 
26 | COc1cccc2c(NCCc3ccccc3)nc(NCc3ccccc3)nc12 [Compound 5-73] | 41.71 ± 2.35 | 5.34 ± 1.17 |  |  |  | 
27 | COc1cccc2c(NCc3ccccc3)nc(NCc3cccc(OC(F)(F)F)c3)nc12 [Compound 16] |  |  | 41.50 ± 2.98 | 7.52 ± 1.95 | 41.50 ± 2.98 | 7.52 ± 1.95
28 | COc1ncnc2c1ccn2-c1nc(NCCc2ccccc2)c2cccc(OC)c2n1 [Compound 5-53] | 72.71 ± 0.81 | 1.68 ± 0.33 |  |  |  | 
29 | COc1cccc2c(NCc3ccccc3)nc(Nc3ccc4ccccc4c3)nc12.Cl [Compound 5-79] | 76.35 ± 3.47 | 3.40 ± 0.70 |  |  |  | 
30 | COc1cccc2c(NCc3ccccc3)nc(N[C@H](C)c3ccccc3)nc12 [Compound 5-89] | 46.68 ± 2.80 | 9.13 ± 2.82 |  |  |  | 
31 | COc1cccc2c(NCc3ccccc3)nc(NCCc3ccccc3)nc12 [Compound 5-75] | 45.53 ± 1.40 | 2.25 ± 1.07 |  |  |  | 
32 | O=[N+]([O-])c1cccc2c(NCc3ccccc3)nc(NCc3ccccc3)nc12 [Compound 5] | 86.38 ± 2.37 | 15.05 ± 0.55 | 86.38 ± 2.37 | 15.05 ± 0.55 |  | 
